Data: patent US7973147B2, “K04-0144 substance and a process for production thereof” (The Kitasato Institute, priority 2006, dated 2011)
≈ marks a conversion by molar mass, not a printed value. Entries after “also recorded” stand apart in the source; their conditions may differ. Like-named read-outs stand apart in the source and are kept apart here.

Assays:
[1] = system: MRSA 70; assay: MIC, agar plate dilution method; assay type: cell-based, methicillin-resistant Staphylococcus aureus; conditions: Staphylococcus aureus, MRSA, 20 h
Protocol: (§1) Assay of minimum inhibitory concentration (MIC) was performed according to the agar plate dilution method (Method of Japan Society of Chemotherapy, CHEMOTHERAPY 29, 76-79, 1981).
(§2) Test organisms used were 27 types of microorganisms including clinical isolates of methicillin-resistant Staphylococcus aureus. Each test organism was cultured in Mueller-Hinton broth (2.1% w/v) (DIFCO) at 37° C. for 20 hours, and the cultured cells were suspended to about 10^6 cell counts/ml in the same medium, then was used as the microbial suspension for inoculation. The prepared microbial suspension was smeared by using the microplanter on MHA medium (Mueller-Hinton broth 2.1% (w/v) and agar 1.5%) containing K04-0144A substance, K04-0144B substance or K04-0144C substance, each of which was subjected to two-fold stepwise dilution from 128 μg/ml. After culturing at 37° C. for 20 hours, MIC was determined by macroscopically confirming the growth of microorganisms. Vancomycin, arbekacin and linezolid were used as a comparative control.

[2] = system: MRSA 92-1191; assay: MIC, agar plate dilution method; assay type: cell-based, methicillin-resistant Staphylococcus aureus; conditions: Staphylococcus aureus; MRSA 92-1191; 37° C., 20 hours; read-out: MIC
Protocol: as §1, §2

[3] = system: MRSA N315 IR94 HR-1; assay: MIC, agar plate dilution method; assay type: cell-based, methicillin-resistant Staphylococcus aureus; conditions: Staphylococcus aureus, 20 h
Protocol: as §1, §2

[4] = system: MRSA N315 IR94; assay: MIC, agar plate dilution method; assay type: cell-based, methicillin-resistant Staphylococcus aureus; conditions: Staphylococcus aureus, 20 h
Protocol: as §1, §2

[5] = system: A. calcoaceticus IFO2552; assay: MIC, agar plate dilution method; assay type: cell-based; conditions: Acinetobacter calcoaceticus; A. calcoaceticus IFO2552; 37° C., 20 hours; read-out: MIC
Protocol: as §1, §2

[6] = system: C. freundii ATCC8090; assay: MIC, agar plate dilution method; assay type: cell-based; conditions: Citrobacter freundii; C. freundii ATCC8090; 37° C., 20 hours; read-out: MIC
Protocol: as §1, §2

[7] = system: E. aerogenes NCTC10006; assay: MIC, agar plate dilution method; assay type: cell-based; conditions: Klebsiella aerogenes; E. aerogenes NCTC10006; 37° C., 20 hours; read-out: MIC
Protocol: as §1, §2

[8] = system: E. cloacae IFO13535; assay: MIC, agar plate dilution method; assay type: cell-based; conditions: Enterobacter cloacae; E. cloacae IFO13535; 37° C., 20 hours; read-out: MIC
Protocol: as §1, §2

[9] = system: E. coli NIHJ JC-2; assay: MIC, agar plate dilution method; assay type: cell-based; conditions: Escherichia coli, NIHJJC2; E. coli NIHJ JC-2; 37° C., 20 hours; read-out: MIC
Protocol: as §1, §2

[10] = system: E. facecalis NTCT12201(VanA); assay: MIC, agar plate dilution method; assay type: cell-based; conditions: E. facecalis NTCT12201(VanA); 37° C., 20 hours; read-out: MIC
Protocol: as §1, §2

[11] = system: E. faecalis ATCC21212; assay: MIC, agar plate dilution method; assay type: cell-based; conditions: Enterococcus faecalis; E. faecalis ATCC21212; 37° C., 20 hours; read-out: MIC
Protocol: as §1, §2

[12] = system: E. faecium NTCT12203(VanA); assay: MIC, agar plate dilution method; assay type: cell-based; conditions: Enterococcus faecium; E. faecium NTCT12203(VanA); 37° C., 20 hours; read-out: MIC
Protocol: as §1, §2

[13] = system: K. pneumoniae NCTN9632; assay: MIC, agar plate dilution method; assay type: cell-based; conditions: Klebsiella pneumoniae; K. pneumoniae NCTN9632; 37° C., 20 hours; read-out: MIC
Protocol: as §1, §2

[14] = system: M. luteus ATCC9341; assay: MIC, agar plate dilution method; assay type: cell-based; conditions: Micrococcus luteus; M. luteus ATCC9341; 37° C., 20 hours; read-out: MIC
Protocol: as §1, §2

[15] = system: M. morganii IID Kono; assay: MIC, agar plate dilution method; assay type: cell-based; conditions: Morganella morganii; M. morganii IID Kono; 37° C., 20 hours; read-out: MIC
Protocol: as §1, §2

[16] = system: P. aeruginosa 46001; assay: MIC, agar plate dilution method; assay type: cell-based; conditions: Pseudomonas aeruginosa; P. aeruginosa 46001; 37° C., 20 hours; read-out: MIC
Protocol: as §1, §2

[17] = system: P. aeruginosa E-2; assay: MIC, agar plate dilution method; assay type: cell-based; conditions: Pseudomonas aeruginosa, E2; P. aeruginosa E-2; 37° C., 20 hours; read-out: MIC
Protocol: as §1, §2

[18] = system: P. mirabilis IFO3849; assay: MIC, agar plate dilution method; assay type: cell-based; conditions: Proteus mirabilis; P. mirabilis IFO3849; 37° C., 20 hours; read-out: MIC
Protocol: as §1, §2

[19] = system: P. vulgaris OX-19; assay: MIC, agar plate dilution method; assay type: cell-based; conditions: Proteus vulgaris, OX19; P. vulgaris OX-19; 37° C., 20 hours; read-out: MIC
Protocol: as §1, §2

[20] = system: S. aureus 8325(pEP2104); assay: MIC, agar plate dilution method; assay type: cell-based; conditions: Staphylococcus aureus, 20 h
Protocol: as §1, §2

[21] = system: S. aureus 8325(pMS97); assay: MIC, agar plate dilution method; assay type: cell-based; conditions: Staphylococcus aureus, 20 h
Protocol: as §1, §2

[22] = system: S. aureus FDA209P; assay: MIC, agar plate dilution method; assay type: cell-based; conditions: Staphylococcus aureus; S. aureus FDA209P; 37° C., 20 hours; read-out: MIC
Protocol: as §1, §2

[23] = system: S. aureus ISP217; assay: MIC, agar plate dilution method; assay type: cell-based; conditions: Staphylococcus aureus; S. aureus ISP217; 37° C., 20 hours; read-out: MIC
Protocol: as §1, §2

[24] = system: S. aureus ISP447; assay: MIC, agar plate dilution method; assay type: cell-based; conditions: Staphylococcus aureus; S. aureus ISP447; 37° C., 20 hours; read-out: MIC
Protocol: as §1, §2

[25] = system: S. aureus Smith; assay: MIC, agar plate dilution method; assay type: cell-based; conditions: Staphylococcus aureus; S. aureus Smith; 37° C., 20 hours; read-out: MIC
Protocol: as §1, §2

[26] = system: S. epidermidis IFO12648; assay: MIC, agar plate dilution method; assay type: cell-based; conditions: Staphylococcus epidermidis; S. epidermidis IFO12648; 37° C., 20 hours; read-out: MIC
Protocol: as §1, §2

[27] = system: S. marcescens IFO12648; assay: MIC, agar plate dilution method; assay type: cell-based; conditions: Serratia marcescens; S. marcescens IFO12648; 37° C., 20 hours; read-out: MIC
Protocol: as §1, §2

[28] = Solubility in solvent; assay type: physicochemical; conditions: listed as K04-0144B Substance
[29] = system: MRSA (Clinical isolate, the Kitasato Hospital, Japan); assay: Enhancing action of K04-0144D substance on antibiotic activities, broth microdilution method; assay type: cell-based, methicillin-resistant Staphylococcus aureus; conditions: for MIC: Staphylococcus aureus, MRSA

## C=C(C/C=C(\C)CCC=C(C)C)CCC(C)(C)/C=C/CC/C(C)=C\COC(COP(=O)(O)OC1OC(C(N)=O)C(C)(O)C(OC(N)=O)C1OC1OC(CO)C(OC2OC(C)C(OC3OC(C(=O)O)C(O)C(O)C3O)C(O)C2NC(C)=O)C(O)C1NC(C)=O)C(=O)O (centres unmarked) [K04-0144B]
[1]
  MIC: 0.125 µg/mL (≈ 0.0943 µM)
[2]
  MIC: 1 µg/mL (≈ 0.755 µM)
[3]
  MIC: 0.125 µg/mL (≈ 0.0943 µM)
[4]
  MIC: 0.125 µg/mL (≈ 0.0943 µM)
[5]
  MIC: 8 µg/mL (≈ 6.04 µM)
[6]
  MIC: > 16 µg/mL
[7]
  MIC: > 16 µg/mL
[8]
  MIC: > 16 µg/mL
[9]
  MIC: > 16 µg/mL
[10]
  MIC: 2 µg/mL (≈ 1.51 µM)
[11]
  MIC: 2 µg/mL (≈ 1.51 µM)
[12]
  MIC: > 16 µg/mL
[13]
  MIC: > 16 µg/mL
[14]
  MIC: > 16 µg/mL
[15]
  MIC: > 16 µg/mL
[16]
  MIC: > 16 µg/mL
[17]
  MIC: > 16 µg/mL
[18]
  MIC: 16 µg/mL (≈ 12.1 µM)
[19]
  MIC: 4 µg/mL (≈ 3.02 µM)
[20]
  MIC: 0.06 µg/mL (≈ 0.0453 µM)
[21]
  MIC: 1 µg/mL (≈ 0.755 µM)
[22]
  MIC: 2 µg/mL (≈ 1.51 µM)
[23]
  MIC: 0.5 µg/mL (≈ 0.377 µM)
[24]
  MIC: 0.5 µg/mL (≈ 0.377 µM)
[25]
  MIC: 2 µg/mL (≈ 1.51 µM)
[26]
  MIC: 8 µg/mL (≈ 6.04 µM)
[27]
  MIC: > 16 µg/mL
[28]
  Solubility in solvent: Soluble in water, methanol and dimethyl sulfoxide; also recorded: Insoluble in acetone, chloroform and n-hexane

## [H]/N=C(/N)N[C@H]1[C@H](O)[C@@H](O)[C@H](O[C@@H]2O[C@@H](C)[C@](O)(C=O)[C@H]2O[C@@H]2O[C@@H](CO)[C@H](O)[C@@H](O)[C@@H]2NC)[C@@H](N/C(N)=N\[H])[C@@H]1O [Streptomycin, streptomycin]
[29]; K04-0144D substance 16 μg/ml
  enhancing action of K04-0144D substance on the antibiotic's activity: no enhancing action
[29]; MIC alone / MIC with K04-0144D substance 16 μg/ml
  Ratio (−/+K04-0144D): 2
[29]; antibiotic alone, without K04-0144D substance, read-out: Minimum Inhibitory Concentration (−)
  MIC: 2 µg/mL
[29]; combined use with K04-0144D substance 16 μg/ml, read-out: Minimum Inhibitory Concentration (+)
  MIC: 1 µg/mL
